This is an account of results in patent US20230248731A1, “COMPOSITION AND MEDICAMENT OF PALBOCICLIB ISETHIONATE” (NANJING GRITPHARMA CO., LTD., priority 2020, published 2023).

A short description of data set [1]: Pharmacokinetics of palbociclib isethionate after single oral administration in 125 mg (Pfizer study 1036). The class given is in vivo, human. The note with it: single oral 125 mg. The procedure:
Existing clinical tests have also shown that the palbociclib isethionate has different bioavailability values before or after a meal. Pharmacokinetics of the palbociclib isethionate in healthy subjects after single administration were evaluated by Pfizer Pharmaceutical, an original research company. Different effects are achieved when the medicine is taken before or after a meal. Compared with administration before a meal, administration after a meal has the advantages that the Cmax value is increased by 7%, and the AUCinf value is increased by about 9%. The food prolongs the retention time of the medicine in the gastric juice, so that the bioavailability is improved. The basic reason is that as the pH environment in the stomach and intestines is different, the palbociclib isethionate has inconsistent dissolution and release conditions, resulting in different bioavailability values. Therefore, when the dissolution of the palbociclib isethionate can be improved under neutral and weakly alkaline conditions, great benefits will be brought to application of the palbociclib isethionate to the treatment of related diseases in the human body.

Data set [2] in a line: Solubility of palbociclib isethionate at different pH values. The class given is physicochemical. From the text:
First, the applicant has studied the solubility of palbociclib isethionate in water, a hydrochloric acid solution with a pH of 1.0, a phosphate buffer with a pH of 6.8 and an acetate buffer with a pH of 4.5 (as shown in Table 3). […] However, the palbociclib isethionate enters the intestinal tract rapidly on an empty stomach, and the pH environment becomes neutral and weakly alkaline. As the solubility of the palbociclib isethionate is extremely low at a pH of 6.8, absorption of the palbociclib isethionate will be affected by the solubility, which is extremely unfavorable to the absorption and utilization of the palbociclib isethionate.

The conditions of data set [3]: background statement; cited from earlier work.

`CC(=O)c1c(C)c2cnc(Nc3ccc(N4CCNCC4)cn3)nc2n(C2CCCC2)c1=O.O=S(=O)(O)CCO` [palbociclib isethionate]: the “Increase of AUCinf, administration after a meal compared with before a meal” value in data set [1] is reported as “about 9%”. Besides, the “Increase of Cmax, administration after a meal compared with before a meal” value in data set [1] is recorded as 7%. Besides, the Solubility (in general, how much of the substance goes into solution per volume) in data set [2] (acetate buffer pH 4.5) amounted to 84.7 mg/mL; in data set [2] (hydrochloric acid solution pH 1.0), 90.7 mg/mL; in data set [2] (phosphate buffer pH 6.8) it was 0.04 mg/mL; in data set [2] (water) it was 84.8 mg/mL. Further, the “Solubility (in words)” value in data set [2] (pH 6.8) is “extremely low”.
On to `CC(=O)c1c(C)c2cnc(Nc3ccc(N4CCNCC4)cn3)nc2n(C2CCCC2)c1=O` [palbociclib in a free alkali form, palbociclib], for which, in data set [3], the “Solubility in water (in words)” value is on record as “poor solubility in water”.
